Measurements published in ChEMBL document CHEMBL5131568, “Discovery of an Oral, Rule of 5 Compliant, Interleukin 17A Protein-Protein Interaction Modulator for the Potential Treatment of Psoriasis and Other Inflammatory Diseases” (J Med Chem, 2022).
≈ marks a conversion by molar mass, not a printed value.

Legend:
[1] = Inhibition of IL-8 release in glycosylated IL-17A/TNFalpha-stimulated human HEKa incubated for 72 hrs under serum free medium by AlphaLISA; format: functional, cell-based
[2] = Metabolic stability in human liver microsomes assessed as apparent clearance at 0.5 uM measured upto 40 mins in presence of NADPH by LCMS/MS analysis; format: ADME, Microsome; conditions: read-out: CLH
[3] = Inhibition of IL-8 release in non-glycosylated IL-17A/TNFalpha-stimulated human HEKa cells at 6 uM incubated for 72 hrs under serum free medium by AlphaLISA; format: functional
[4] = Inhibition of IL-8 release in non-glycosylated IL-17A/TNFalpha-stimulated human HEKa incubated for 72 hrs under serum free medium by AlphaLISA; format: functional, cell-based
[5] = Inhibition of IL-8 release in glycosylated IL-17A/TNFalpha-stimulated human HEKa cells at 10 uM incubated for 72 hrs under serum free medium by AlphaLISA; format: functional
[6] = Inhibition of IL-8 release in non-glycosylated IL-17A/TNFalpha-stimulated human HEKa cells at 0.6 uM incubated for 72 hrs under serum free medium by AlphaLISA; format: functional
[7] = Oral bioavailability in Sprague-Dawley rat at 2.6 mg/kg measured upto 24 hrs by LCMS/MS analysis; format: ADME, organism-based; conditions: in vivo
[8] = Volume of distribution at steady state in Sprague-Dawley rat at 0.1 mg/kg, iv measured upto 24 hrs by LCMS/MS analysis; format: ADME, organism-based; conditions: in vivo, read-out: Vdss
[9] = Solubility in phosphate buffer at pH 2 measured after 24 hrs by HPLC-UV analysis; format: physicochemical
[10] = Clearance in Sprague-Dawley rat at 0.1 mg/kg, iv measured upto 24 hrs by LCMS/MS analysis; format: ADME, organism-based; conditions: in vivo
[11] = Half life in Sprague-Dawley rat at 0.1 mg/kg, iv measured upto 24 hrs by LCMS/MS analysis; format: ADME, organism-based; conditions: in vivo
[12] = Solubility in phosphate buffer at pH 7.4 measured after 24 hrs by HPLC-UV analysis; format: physicochemical
[13] = Protein binding in human plasma assessed as unbound fraction at 1 uM by LCMS/MS analysis; format: ADME, cell-free
[14] = Apparent permeability of compound in human Caco2 cells from basal to apical; format: ADME, cell-based; conditions: Caco-2
[15] = Apparent permeability of compound in human Caco2 cells from apical to basal; format: ADME, cell-based; conditions: Caco-2
[16] = Solubility in phosphate buffer at pH 6.5 measured after 24 hrs by HPLC-UV analysis; format: physicochemical
Interleukin-17A = biological target: T1, Interleukin-17A (Homo sapiens, UniProt Q16552); test: Binding affinity to human IL-17A assessed as thermal stability by measuring increase in unfolding temperature by differential scanning fluorimetry
T1 sequence (Q16552 whole entry): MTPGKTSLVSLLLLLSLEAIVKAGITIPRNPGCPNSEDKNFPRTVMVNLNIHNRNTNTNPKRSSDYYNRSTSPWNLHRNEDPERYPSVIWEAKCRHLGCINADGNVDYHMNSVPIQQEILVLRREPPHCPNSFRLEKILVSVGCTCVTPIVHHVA

[17] = biological target: Voltage-gated inwardly rectifying potassium channel KCNH2 (Homo sapiens, UniProt Q12809); test: Inhibition of human ERG; format: toxicity
Sequence of Voltage-gated inwardly rectifying potassium channel KCNH2 (Q12809 whole entry): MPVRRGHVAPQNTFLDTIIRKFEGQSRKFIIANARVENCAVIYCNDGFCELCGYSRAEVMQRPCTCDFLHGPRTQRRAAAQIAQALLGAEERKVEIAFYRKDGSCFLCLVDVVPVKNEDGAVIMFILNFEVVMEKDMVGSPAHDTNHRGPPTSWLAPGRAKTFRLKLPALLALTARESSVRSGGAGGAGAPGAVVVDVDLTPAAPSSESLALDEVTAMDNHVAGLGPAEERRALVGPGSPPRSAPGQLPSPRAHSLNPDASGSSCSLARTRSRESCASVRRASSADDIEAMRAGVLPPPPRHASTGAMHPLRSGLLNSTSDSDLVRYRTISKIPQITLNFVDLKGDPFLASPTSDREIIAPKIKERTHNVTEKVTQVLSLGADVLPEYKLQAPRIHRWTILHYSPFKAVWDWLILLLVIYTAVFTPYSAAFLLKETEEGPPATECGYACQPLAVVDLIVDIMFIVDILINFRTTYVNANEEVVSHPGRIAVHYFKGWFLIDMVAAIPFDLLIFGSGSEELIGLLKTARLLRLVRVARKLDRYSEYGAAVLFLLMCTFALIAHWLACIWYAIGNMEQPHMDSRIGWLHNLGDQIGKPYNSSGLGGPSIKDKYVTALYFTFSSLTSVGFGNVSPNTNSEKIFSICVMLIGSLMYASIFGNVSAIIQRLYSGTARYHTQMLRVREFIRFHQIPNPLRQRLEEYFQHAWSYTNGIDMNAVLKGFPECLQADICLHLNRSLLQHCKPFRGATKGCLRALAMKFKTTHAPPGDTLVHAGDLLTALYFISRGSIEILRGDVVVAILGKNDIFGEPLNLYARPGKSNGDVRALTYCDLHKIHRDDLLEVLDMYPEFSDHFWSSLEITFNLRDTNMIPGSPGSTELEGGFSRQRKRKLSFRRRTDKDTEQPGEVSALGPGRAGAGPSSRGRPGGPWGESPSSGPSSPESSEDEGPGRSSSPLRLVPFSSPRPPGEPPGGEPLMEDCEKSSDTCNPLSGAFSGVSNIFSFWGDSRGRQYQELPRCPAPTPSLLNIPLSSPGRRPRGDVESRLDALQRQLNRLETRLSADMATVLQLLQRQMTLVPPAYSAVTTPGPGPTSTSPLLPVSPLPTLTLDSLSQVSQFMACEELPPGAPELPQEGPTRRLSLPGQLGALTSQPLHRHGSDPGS

Row | SMILES | CLint scaled at 0.5 µM [2] | EC50 [4] | also measured
1 | Cn1cncc1-c1ccc(NC(=O)[C@@H](NC(=O)c2ccnn2C)C(c2ccccc2)c2ccccc2)cc1 | 21 mL/min/kg |  | EC50 [1]: 947 nM
2 | Cc1n[nH]c(C)c1-c1ccc(NC(=O)[C@H](Cc2ccccc2)NC(=O)c2ccnn2C)cc1 | 12 mL/min/kg |  | inhibition at 6 µM [3]: 37%
3 | Cc1ncn(C)c1-c1ccc(NC(=O)[C@@H](NC(=O)c2ccnn2C)C(c2ccccc2)c2ccccc2)cc1 | 94 mL/min/kg |  | EC50 [1]: 304 nM
4 | CCn1nccc1C(=O)N[C@H](C(=O)Nc1ccc(-c2c(C)n[nH]c2C)cc1)C(C1CCC1)C1CCC1 | 44 mL/min/kg | 5.5 nM | 
5 | Cc1n[nH]c(C)c1-c1ccc(NC(=O)[C@@H](NC(=O)c2ccnn2C)[C@H]2CC[C@H](C)CC2)cc1 | < 8 mL/min/kg | 50 nM | 
6 | Cn1cnnc1-c1ccc(NC(=O)[C@@H](NC(=O)c2ccnn2C)C(c2ccccc2)c2ccccc2)cc1 | < 8 mL/min/kg |  | inhibition at 10 µM [5]: 47%
7 | Cc1[nH]ncc1-c1ccc(NC(=O)[C@@H](NC(=O)c2ccnn2C)C(c2ccccc2)c2ccccc2)cc1 | < 8 mL/min/kg |  | EC50 [1]: 385 nM
8 | Cc1n[nH]c(C)c1-c1ccc(NC(=O)[C@H](Cc2ccccc2Cl)NC(=O)c2ccnn2C)cc1 | 24 mL/min/kg | 1100 nM | 
9 | Cc1n[nH]c(C)c1-c1ccc(NC(=O)[C@@H](NC(=O)c2ccnn2C)C(C2CCC2)C2CCC2)cc1 | 9 mL/min/kg | 10 nM | 
10 | CN(C)C(=O)c1ccc(NC(=O)[C@@H](NC(=O)c2ccnn2C)C(c2ccccc2)c2ccccc2)cc1 | < 8 mL/min/kg | 5610 nM | inhibition at 10 µM [5]: 52%
11 | CCn1nccc1C(=O)N[C@H](C(=O)Nc1ccc(-c2c(C)n[nH]c2C)cc1)C(C1CC1)C1CC1 | < 8 mL/min/kg | 26 nM | 
12 | Cc1n[nH]c(C)c1-c1ccc(NC(=O)[C@H](CC2CCCCC2)NC(=O)c2ccnn2C)cc1 | 57 mL/min/kg | 935 nM | 
13 | CC(C)[C@H](NC(=O)COCCNC(=O)OC(C)(C)C)C(=O)N[C@@H](CC(=O)O)Cc1ccc(NC(=O)[C@H](Cc2ccccc2Cl)NC(=O)C(F)(F)c2ccccc2)cc1 | 33 mL/min/kg | 575 nM | 
14 | Cc1n[nH]c(C)c1-c1ccc(NC(=O)[C@@H](NC(=O)c2ccnn2C)C(C2CC2)C2CC2)cc1 | < 8 mL/min/kg | 53 nM | 
15 | Cc1n[nH]c(C)c1-c1ccc(NC(=O)[C@@H](NC(=O)c2ccnn2C)c2ccccc2)cc1 | < 8 mL/min/kg |  | inhibition at 0.6 µM [6]: 28%
16 | Cc1n[nH]c(C)c1-c1ccc(NC(=O)[C@@H](NC(=O)c2ccnn2C)C2CCCCC2)cc1 | < 8 mL/min/kg | 208 nM | 
17 | Cc1n[nH]c(C)c1-c1ccc(NC(=O)[C@@H](NC(=O)c2ccnn2C)C(c2ccccc2)c2ccccc2)cc1 | < 8 mL/min/kg |  | bioavailability [7]: 26%; Vd [8]: 2 L/kg; solubility at 24 h [9]: 25 µg/mL (≈ 48.2 µM); clearance [10]: 7 mL/min/kg; half-life [11]: 3.2 h; solubility at 24 h [12]: < 1 µg/mL; fraction unbound at 1 µM [13]: 0.0011; Papp B→A [14]: 21 ×10⁻⁶ cm/s; Papp A→B [15]: 16 ×10⁻⁶ cm/s; EC50 [1]: 117 nM; solubility at 24 h [16]: < 1 µg/mL
18 | Cc1n[nH]c(C)c1-c1ccc(NC(=O)[C@@H](NC(=O)c2ccnn2C)C2CCCCCC2)cc1 | 105 mL/min/kg | 36 nM | 
19 | Cn1nccc1C(=O)N[C@H](C(=O)Nc1ccc(-c2cn[nH]c2)cc1)C(c1ccccc1)c1ccccc1 | < 8 mL/min/kg |  | EC50 [1]: 3380 nM
20 | Cc1n[nH]c(C)c1-c1ccc(NC(=O)C(NC(=O)c2ccnn2C)C2CCC3(CC2)CC3)cc1 (stereo not given) | < 8 mL/min/kg | 296 nM | 
21 | Cc1n[nH]c(C)c1-c1ccc(NC(=O)[C@@H](NC(=O)c2ccnn2C(C)C)C(C2CC2)C2CC2)cc1 | < 8 mL/min/kg | 15 nM | bioavailability [7]: 100%; Kd (Interleukin-17A): 32 nM; Vd [8]: 2.6 L/kg; solubility at 24 h [9]: 40 µg/mL (≈ 84.3 µM); IC50 [17]: > 30000 nM; clearance [10]: 7.4 mL/min/kg; half-life [11]: 3.7 h; solubility at 24 h [12]: < 1 µg/mL; fraction unbound at 1 µM [13]: 0.017; Papp B→A [14]: 26 ×10⁻⁶ cm/s; Papp A→B [15]: 38 ×10⁻⁶ cm/s; solubility at 24 h [16]: < 1 µg/mL
22 | O=C1CNC(=O)[C@@H](Cc2ccc(NC(=O)[C@H](Cc3ccccc3Cl)NC(=O)Cc3ccccc3)cc2)NC(=O)CC2(CCCC2)CC(=O)NCCCCCN1 | > 200 mL/min/kg | 151 nM | EC50 [1]: 1920 nM
23 | Cc1n[nH]c(C)c1-c1ccc(NC(=O)[C@@H](NC(=O)c2ccnn2C(C)C)C(C2CCC2)C2CCC2)cc1 | 52 mL/min/kg | 4.5 nM | 
